According to PubChem BioAssay (NCI):
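In this assay, cells in 96-well plates receive the compound at five concentrations for 48 hours. Endpoints are linearly interpolated between the surrounding concentrations. TGI is the concentration that stops growth completely.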 Where a SMILES comes first, the peptide text is derived from it. The star is where a group is joined. Cbz = O=C(OCc1ccccc1)*; Boc = CC(C)(C)OC(=O)*; OBn = c1ccc(CO*)cc1

Tests used:
Assay in all cases: NCI anticancer screen, dose series, 48 h
[1] = system: 786-0 renal
[2] = system: A498 renal
[3] = system: A549 NSCLC
[4] = system: ACHN renal
[5] = system: BT-549 breast
[6] = system: CAKI-1 renal
[7] = system: COLO 205 colon
[8] = system: DU-145 prostate
[9] = system: EKVX NSCLC
[10] = system: HCT-116 colon
[11] = system: HCT-15 colon
[12] = system: HL-60(TB) leukemia
[13] = system: HOP-62 NSCLC
[14] = system: HOP-92 NSCLC
[15] = system: HS 578T breast
[16] = system: HT29 colon
[17] = system: IGROV1 ovarian
[18] = system: K-562 leukemia
[19] = system: KM12 colon
[20] = system: LOX IMVI melanoma
[21] = system: M14 melanoma
[22] = system: MALME-3M melanoma
[23] = system: MCF7 breast
[24] = system: MDA-MB-231 breast
[25] = system: MDA-MB-435
[26] = system: MDA-N
[27] = system: MOLT-4 leukemia
[28] = system: NCI-H226 lung
[29] = system: NCI-H23 lung
[30] = system: NCI-H522 lung
[31] = system: NCI/ADR-RES ovarian
[32] = system: OVCAR-3 ovarian
[33] = system: OVCAR-4 ovarian
[34] = system: OVCAR-5 ovarian
[35] = system: OVCAR-8 ovarian
[36] = system: PC-3 prostate
[37] = system: RPMI-8226 leukemia
[38] = system: RXF 393 renal
[39] = system: SF-268 CNS
[40] = system: SF-295 CNS
[41] = system: SF-539 CNS
[42] = system: SK-MEL-28 melanoma
[43] = system: SK-MEL-5 melanoma
[44] = system: SK-OV-3 ovarian
[45] = system: SN12C renal
[46] = system: SNB-19 CNS
[47] = system: SNB-75 CNS
[48] = system: SR leukemia
[49] = system: SW-620 colon
[50] = system: T-47D breast
[51] = system: TK-10 renal
[52] = system: U251 CNS
[53] = system: UACC-62 melanoma
[54] = system: UO-31 renal
[55] = system: CCRF-CEM leukemia
[56] = system: HCC-2998 colon
[57] = system: NCI-H460 lung
[58] = system: SK-MEL-2 melanoma
[59] = system: UACC-257 melanoma

For `COC(=O)C(CCCCNC(=O)OCc1ccccc1)NC(=O)C(CCC(=O)OCc1ccccc1)NC(=O)OC(C)(C)C` (stereo unspecified) (Boc-Glu(OBn)-Lys(Cbz)-OMe; configuration not given here), the TGI [1] was over 100 µM, the TGI [2] was 66.5 µM and the TGI [3] was over 100 µM. For the same compound, the TGI [4] was over 100 µM, the TGI [5] was over 100 µM and the TGI [6] was over 100 µM. The TGI [7] was over 100 µM, the TGI [8] was over 100 µM and the TGI [9] was over 100 µM. For the same compound, the TGI [10] was over 100 µM, the TGI [11] was over 100 µM and the TGI [12] was over 100 µM. It also gave a TGI [13] of 32.2 µM, a TGI [14] of over 100 µM and a TGI [15] of over 100 µM. The TGI [16] was over 100 µM, the TGI [17] was over 100 µM and the TGI [18] was over 100 µM. The TGI [19] was over 100 µM, the TGI [20] was over 100 µM and the TGI [21] was over 100 µM. The TGI [22] was over 100 µM, the TGI [23] was over 100 µM and the TGI [24] was over 100 µM. It also gave a TGI [25] of over 100 µM, a TGI [26] of over 100 µM and a TGI [27] of over 100 µM. It also gave a TGI [28] of over 100 µM, a TGI [29] of over 100 µM and a TGI [30] of over 100 µM. The TGI [31] was over 100 µM, the TGI [32] was over 100 µM and the TGI [33] was over 100 µM. The TGI [34] was over 100 µM, the TGI [35] was over 100 µM and the TGI [36] was over 100 µM. For the same compound, the TGI [37] was over 100 µM, the TGI [38] was over 100 µM and the TGI [39] was over 100 µM. The TGI [40] was over 100 µM, the TGI [41] was over 100 µM and the TGI [42] was over 100 µM. For the same compound, the TGI [43] was over 100 µM, the TGI [44] was over 100 µM and the TGI [45] was over 100 µM. It also gave a TGI [46] of over 100 µM, a TGI [47] of over 100 µM and a TGI [48] of over 100 µM. It also gave a TGI [49] of over 100 µM, a TGI [50] of over 100 µM and a TGI [51] of over 100 µM. For the same compound, the TGI [52] was over 100 µM, the TGI [53] was over 100 µM and the TGI [54] was over 100 µM.

Work on `Cc1ccc(NC(=O)c2cc(S(=O)(=O)N3CCNNC3=O)c(S)cc2Cl)cc1` yielded a TGI [1] of over 100 µM, a TGI [3] of over 100 µM and a TGI [4] of over 100 µM. For the same compound, the TGI [5] was 87.6 µM, the TGI [6] was over 100 µM and the TGI [55] was over 100 µM. It also gave a TGI [7] of over 100 µM, a TGI [8] of over 100 µM and a TGI [9] of over 100 µM. The TGI [56] was over 100 µM, the TGI [10] was over 100 µM and the TGI [11] was over 100 µM. The TGI [12] was over 100 µM, the TGI [14] was over 100 µM and the TGI [15] was over 100 µM. For the same compound, the TGI [17] was over 100 µM, the TGI [18] was over 100 µM and the TGI [19] was over 100 µM. For the same compound, the TGI [20] was over 100 µM, the TGI [21] was over 100 µM and the TGI [22] was over 100 µM. It also gave a TGI [23] of over 100 µM, a TGI [24] of over 100 µM and a TGI [25] of over 100 µM. It also gave a TGI [26] of over 100 µM, a TGI [27] of over 100 µM and a TGI [28] of over 100 µM. The TGI [57] was over 100 µM, the TGI [30] was over 100 µM and the TGI [31] was over 100 µM. It also gave a TGI [32] of over 100 µM, a TGI [33] of over 100 µM and a TGI [34] of over 100 µM. The TGI [35] was over 100 µM, the TGI [36] was over 100 µM and the TGI [37] was over 100 µM. It also gave a TGI [38] of 80.6 µM, a TGI [39] of over 100 µM and a TGI [40] of over 100 µM. For the same compound, the TGI [41] was over 100 µM, the TGI [58] was over 100 µM and the TGI [42] was over 100 µM. The TGI [43] was over 100 µM, the TGI [45] was over 100 µM and the TGI [46] was over 100 µM. It also gave a TGI [47] of over 100 µM, a TGI [48] of over 100 µM and a TGI [49] of over 100 µM. The TGI [50] was over 100 µM, the TGI [51] was over 100 µM and the TGI [52] was over 100 µM. The TGI [59] was over 100 µM, the TGI [53] was over 100 µM and the TGI [54] was over 100 µM.

For `COC(=O)C1(C)CCc2c(ccc3ccccc23)C1=O` (stereo unspecified), the TGI [1] was over 100 µM, the TGI [2] was 81 µM and the TGI [3] was over 100 µM. For the same compound, the TGI [4] was over 100 µM, the TGI [5] was 64 µM and the TGI [6] was 41.6 µM. It also gave a TGI [55] of over 100 µM, a TGI [7] of 42.2 µM and a TGI [8] of over 100 µM. It also gave a TGI [9] of over 100 µM, a TGI [56] of over 100 µM and a TGI [10] of over 100 µM. The TGI [11] was over 100 µM, the TGI [12] was over 100 µM and the TGI [13] was over 100 µM. It also gave a TGI [14] of over 100 µM, a TGI [15] of over 100 µM and a TGI [16] of over 100 µM. It also gave a TGI [17] of 95.7 µM, a TGI [18] of over 100 µM and a TGI [19] of 70.4 µM. For the same compound, the TGI [20] was over 100 µM, the TGI [21] was 83.8 µM and the TGI [22] was 69 µM. It also gave a TGI [23] of 81.2 µM, a TGI [24] of over 100 µM and a TGI [25] of over 100 µM. It also gave a TGI [26] of 76.5 µM, a TGI [27] of over 100 µM and a TGI [29] of over 100 µM. It also gave a TGI [57] of over 100 µM, a TGI [30] of 57.3 µM and a TGI [31] of over 100 µM. It also gave a TGI [32] of over 100 µM, a TGI [34] of over 100 µM and a TGI [35] of over 100 µM. For the same compound, the TGI [36] was over 100 µM, the TGI [37] was 60.6 µM and the TGI [38] was 67.5 µM. It also gave a TGI [39] of over 100 µM, a TGI [40] of over 100 µM and a TGI [41] of over 100 µM. It also gave a TGI [58] of 64.8 µM, a TGI [42] of over 100 µM and a TGI [43] of 35.9 µM. For the same compound, the TGI [44] was over 100 µM, the TGI [45] was over 100 µM and the TGI [46] was over 100 µM. It also gave a TGI [47] of over 100 µM, a TGI [48] of over 100 µM and a TGI [49] of over 100 µM. It also gave a TGI [50] of 72.8 µM, a TGI [51] of 95.7 µM and a TGI [52] of over 100 µM. The TGI [59] was 55.2 µM, the TGI [53] was 98.1 µM and the TGI [54] was over 100 µM.

`O=C1Nc2ccccc2/C1=C\c1c(Cl)[nH]c2ccccc12` was tested, and the TGI [1] was 3.66 µM, the TGI [2] was 4.78 µM and the TGI [3] was 13.3 µM. It also gave a TGI [4] of 13.1 µM, a TGI [5] of 6.22 µM and a TGI [6] of 7.77 µM. The TGI [55] was 3.44 µM, the TGI [7] was 1.23 µM and the TGI [8] was 20 µM. For the same compound, the TGI [9] was 5.29 µM, the TGI [56] was 1.68 µM and the TGI [11] was 17.5 µM. For the same compound, the TGI [12] was 0.728 µM, the TGI [13] was 7.51 µM and the TGI [14] was 3.6 µM. For the same compound, the TGI [15] was 2.57 µM, the TGI [16] was 0.598 µM and the TGI [17] was 1.35 µM. For the same compound, the TGI [18] was 7.49 µM, the TGI [19] was 1.67 µM and the TGI [20] was 6.15 µM. The TGI [21] was 4.12 µM, the TGI [22] was 6.39 µM and the TGI [23] was 10.6 µM. It also gave a TGI [24] of 14.3 µM, a TGI [25] of 0.417 µM and a TGI [26] of 0.486 µM. The TGI [27] was 12.6 µM, the TGI [28] was 35.5 µM and the TGI [29] was 16.1 µM. For the same compound, the TGI [57] was 2.59 µM, the TGI [30] was 3.54 µM and the TGI [31] was 1.31 µM. It also gave a TGI [32] of 17.5 µM, a TGI [34] of 5.05 µM and a TGI [35] of 8.51 µM. The TGI [36] was 3.46 µM, the TGI [37] was 3.34 µM and the TGI [38] was 3.55 µM. It also gave a TGI [39] of 7.72 µM, a TGI [40] of 0.956 µM and a TGI [41] of 1.43 µM. The TGI [58] was 6.67 µM, the TGI [42] was 0.78 µM and the TGI [43] was 2.04 µM. It also gave a TGI [44] of 1.2 µM, a TGI [45] of 17.5 µM and a TGI [46] of 5.21 µM. It also gave a TGI [48] of 0.918 µM, a TGI [49] of 5.45 µM and a TGI [50] of over 100 µM. The TGI [51] was 6.65 µM, the TGI [52] was 9.15 µM and the TGI [59] was 17 µM. For the same compound, the TGI [53] was 9.75 µM and the TGI [54] was 6.84 µM.
